Reference: patent US9441012B2, “Fluorinated epoxyketone-based compounds and uses thereof as proteasome inhibitors” (FLUORINOV PHARMA INC., priority 2012, dated 2016)

Key:
CAKI-1 = experiment: NCI 60 human tumor cell line screen (SRB); assay type: cell-based; details: CAKI-1 (Renal Cancer); 48 h
SK-MEL-2 = experiment: NCI 60 human tumor cell line screen (SRB); assay type: cell-based; details: SK-MEL-2 (Melanoma); 48 h
NCI-H460 = experiment: NCI 60 human tumor cell line screen (SRB); assay type: cell-based; details: NCI-H460 (Non-Small Cell Lung Cancer); 48 h
NCI-H522 = experiment: NCI 60 human tumor cell line screen (SRB); assay type: cell-based; details: NCI-H522 (Non-Small Cell Lung Cancer); 48 h
[1] = system: high molecular weight ubiquitylated proteins in LP1 cells; experiment: Immunoblotting assay of ubiquitylated proteins; assay type: cell-based; details: Homo sapiens, LP-1, read-out: IC50 (increase of ubiquitylated proteins, immunoblot)
Procedure: Whole cell lysates were prepared from LP1 cells in RIPA lysis buffer. Anti-ubiquitin antibody was purchased from Cell Signaling Technology Inc, (Danvers, Mass.) and anti-tubulin antibody was purchased from Sigma-Aldrich (St. Louis, Mo.). Secondary horseradish peroxidase-conjugated goat anti-mouse or anti-rabbit IgG was purchased from Amersham Bioscience (Piscataway, N.J.). Detection was performed using an enhanced chemiluminescence kit from Pierce, (Rockford, Ill.).

MOLT-4 = experiment: NCI 60 human tumor cell line screen (SRB); assay type: cell-based; details: MOLT-4 (Leukemia); 48 h
[2] = target: T1, chymotrypsin-like (CT-L) proteasome activity (Mus musculus, UniProt O55234); experiment: Proteasome subunit activity in murine red blood cells after oral administration; assay type: in vivo, NOD/SCID mice; details: oral gavage, Example 1 50 mg/kg, Example 26 60 mg/kg
T1 construct: RBCs were lysed with assay lysis buffer and incubated on ice for 30 minutes; from tissue; host or cells: red blood cells of NOD/SCID mice after oral dosing
T1 sequence (O55234 60-264): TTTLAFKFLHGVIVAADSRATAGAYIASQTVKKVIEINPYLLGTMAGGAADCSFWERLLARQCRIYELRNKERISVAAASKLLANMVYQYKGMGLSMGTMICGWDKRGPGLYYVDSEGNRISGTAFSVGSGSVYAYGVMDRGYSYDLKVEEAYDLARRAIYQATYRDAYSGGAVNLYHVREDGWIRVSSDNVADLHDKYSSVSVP
Procedure: (§1) Cells were harvested by centrifugation at 1,200 rpm at room temperature. Cell pellets were washed with PBS and lysed with assay lysis buffer (50 mM HEPES (N-2-hydroxyethylpiperazine-N′-2-ethanesulfonic acid), pH 7.5; 150 mM NaCl; 1% Triton X-100; 2 mM ATP). Cell lysates were incubated on ice for 30 minutes, mixed by vortex every 5 minutes, and then centrifuged at 12,000 g for 10 minutes. The supernatant was transferred to a 96-well plate. For each assay, 10 μg of total protein were incubated for 1 hour at 37° C. with increasing concentrations (1 nM to 10 μM) of test compound diluted in assay buffer (50 mM Tris-HCl (tris(hydroxymethyl)aminomethane-HCl), pH 7.5; 150 mM NaCl). DMSO alone was used as a control in every assay plate. After incubation, a specific fluorogenic proteasome substrate was added to each assay reaction at a final concentration of 40 μM in a total volume of 100 μL. N-Succinyl-Leu-Leu-Val-Tyr-7-amino-4-methylcoumarin (Suc-Leu-Leu-Val-Tyr-AMC) was used for measuring chymotrypsin-like (CT-L) activity, t-butoxycarbonyl-Leu-Arg-Arg-7-amino-4-methylcoumarin (Boc-Leu-Arg-Arg-AMC) for trypsin-like (T-L) activity, and benzyloxycarbonyl-L-leucyl-L-leucyl-L-glutamyl-7-amino-4-methylcoumarin (Z-Leu-Leu-Glu-AMC) for caspase-like (C-L) activity. The excitation wavelength was set at 360 nm and the fluorescence emission wavelength of AMC was detected at 460 nm. The fluorescence of free AMC released during the enzymatic reaction was measured with a SpectraMax M5 fluorescent spectrophotometric plate reader (Molecular Devices, Sunnyvale, Calif.). AMC release rate was measured at 37° C. in a kinetic mode, recording every 5 minutes for 30 minutes. Experiments were performed in triplicate and repeated at least twice.
All mouse experiments were performed in accordance with approval from the Ontario Cancer Institute institutional animal review board. Five- to six-week-old male non-obese diabetic/severe combined immunodeficient (NOD/SCID) mice were grouped randomly (n=3 mice per group). Mice were administered vehicle (5% DMSO, 20% Cremophor) or compounds of Formula I at different doses either intravenously or by oral gavage, and venous blood samples (20-50 μL) were collected from each mouse over 24 hours. Blood samples were mixed with heparin (APP Pharmaceuticals; Schaumburg, Ill.) in 0.5 mL tubes in accordance with the manufacturer's instructions. After centrifugal separation at 3,000 g for 10 minutes, red blood cells (RBCs) in the bottom layer were transferred into a new tube and stored at −70° C. until use. RBCs were lysed with assay lysis buffer and incubated on ice for 30 minutes, mixing by vortex every 5 minutes, and then centrifuged at 12,000 g for 10 minutes. The supernatant was transferred to a 96-well plate and proteasome activity was measured as described in above for tumor cell lysates.
Proteasome subunit activity (Chymotrypsin-like, Trypsin-like, Caspase-like, CT-L, T-L, C-L, respectively) were monitored over the course of 24 hrs following […] administration of representative compounds of Formula I. NOD/SCID mice were treated with the compound from Example 1 (50 mg/kg by oral gavage) and the compound from Example 26 (60 mg/kg by oral gavage) or vehicle control for up to 24 hours, as described above.
Table 10 summarizes the data for the representative compounds of Formula (I); the compounds of Examples 1 and 26.

CCRF-CEM = experiment: NCI 60 human tumor cell line screen (SRB); assay type: cell-based; details: CCRF-CEM (Leukemia); 48 h
[3] = system: chymotrypsin-like (CT-L) proteasome activity, OCI-AML-2; experiment: Proteasome enzymatic activity (tumor cell lysates); assay type: biochemical, human; details: OCI-AML-2 cell lysate; mean ± standard deviation
Procedure: as §1
(§2) Table 9 summarizes data obtained for representative compounds of Formula I for cell viability and CT-L proteasome activity using OCI-AML-2 and KMS-11 cell lines.

[4] = system: chymotrypsin-like (CT-L) proteasome activity, KMS-11; experiment: Proteasome enzymatic activity (tumor cell lysates); assay type: biochemical, human; details: KMS-11 cell lysate; mean ± standard deviation
Procedure: as §1, §2

Row | Compound | Log10GI50 (CAKI-1) | Log10LC50 (CAKI-1) | Log10TGI50 (CAKI-1) | Log10GI50 (SK-MEL-2) | Log10LC50 (SK-MEL-2) | Log10TGI50 (SK-MEL-2) | Log10GI50 (NCI-H460) | Log10LC50 (NCI-H460) | Log10TGI50 (NCI-H460) | Log10GI50 (NCI-H522) | Log10LC50 (NCI-H522) | Log10TGI50 (NCI-H522) | IC50 [1] [nM] | Log10GI50 (MOLT-4) | Log10LC50 (MOLT-4) | Log10TGI50 (MOLT-4) | chymotrypsin-like (CT-L) mean residual activity relative to vehicle treated controls ([2]; 30 min) [%] | chymotrypsin-like (CT-L) mean residual activity relative to vehicle treated controls ([2]; 24 hours) [%] | IC50 [3] [nM] | IC50 [4] [nM] | further results
1 | CC(C)C[C@H](NC(=O)[C@H](Cc1ccccc1)NC(=O)[C@H](COC(F)F)NC(=O)CN1CCOCC1)C(=O)[C@@]1(C)CO1 [Example 25, (2S)-2-[[(2S)-3-(difluoromethoxy)-2-[(2-morpholinoacetyl)amino]propanoyl]amino]-N-[(1S)-3-methyl-1-[(2R)-2-methyloxirane-2-carbonyl]butyl]-3-phenyl-propanamide] | −6.72 | >−4.00 | −6.09 | −7.54 | −5.46 | −7.03 | −7.21 | −4.13 | −6.43 | −7.67 | >−4.00 | −7.19 | < 50 | −7.69 | >−4.00 | −7.11 | – | – | – | – | –
2 | Cc1ncc(C(=O)N[C@@H](COC(F)F)C(=O)N[C@@H](COC(F)F)C(=O)N[C@@H](Cc2ccccc2)C(=O)[C@@]2(C)CO2)s1 [Example 1, 2-methyl-thiazole-5-carboxylic acid ((S)-1-{(S)-1-[(S)-1-benzyl-2-((R)-2-methyloxiranyl)-2-oxo-ethylcarbamoyl]-2-difluoromethoxyethylcarbamoyl}-2-difluoromethoxyethyl)-amide] | −6.40 | >−4.00 | −5.28 | – | – | – | −6.48 | −5.12 | −5.84 | −6.86 | −4.15 | −6.15 | < 50 | −7.37 | >−4.00 | >−4.00 | 27 | 22 | 39.2 ± 2.12 | 29.6 ± 3.69 | chymotrypsin-like (CT-L) mean residual activity relative to vehicle treated controls ([2]; time 0): 100%; Log10GI50 (CCRF-CEM): −7.26; Log10LC50 (CCRF-CEM): >−4.00; Log10TGI50 (CCRF-CEM): >−4.00
3 | C[C@]1(C(=O)[C@H](Cc2ccccc2)NC(=O)[C@H](COC(F)F)NC(=O)[C@H](COC(F)F)NC(=O)CN2CCOCC2)CO1 [Example 26, (S)-N-{(S)-1-[(S)-1-Benzyl-2-((R)-2-methyl-oxiranyl)-2-oxo-ethylcarbamoyl]-2-difluoromethoxyethyl}-3-difluoromethoxy-2-(2-morpholin-4-yl-acetylamino)-propio-namide] | −6.72 | >−4.00 | −6.09 | −7.54 | −5.46 | −7.03 | −7.21 | −4.13 | −6.43 | −7.67 | >−4.00 | −7.19 | – | −7.69 | >−4.00 | −7.11 | 33 | 27 | 358 ± 177 | 174 ± 434 | chymotrypsin-like (CT-L) mean residual activity relative to vehicle treated controls ([2]; time 0): 100%
4 | C[C@]1(C(=O)[C@H](Cc2ccccc2)NC(=O)[C@H](Cc2ccccc2)NC(=O)[C@H](COC(F)F)NC(=O)CN2CCOCC2)CO1 [Example 29] | −6.56 | >−4.00 | −5.94 | −7.19 | >−4.00 | −6.02 | −6.49 | >−4.00 | −5.87 | −6.90 | >−4.00 | −6.17 | – | −7.54 | >−4.00 | −7.05 | – | – | 132 ± 10.4 | 135 ± 12.3 | Log10GI50 (CCRF-CEM): −7.62; Log10LC50 (CCRF-CEM): >−4.00; Log10TGI50 (CCRF-CEM): >−4.00
